Assay [1] deals with T1, PIM3 (Homo sapiens, UniProt Q86V86).
T1 construct: made in house
Briefly: Pim-3 kinase enzymatic assay (Caliper LC3000, FAM-Pimtide substrate). Format: biochemical. The settings on record: 55 pM PIM3, 10 μM ATP, 90 minutes; read-out: PIM3 LC3K (Ki).

The target in assay [2] is T2, PIM2 (Homo sapiens, UniProt Q9P1W9).
T2 construct: made in house
As to the kind of experiment: Pim-2 kinase enzymatic assay (Caliper LC3000, FAM-Pimtide substrate). Conditions: 50 pM PIM2, 10 μM ATP, 90 minutes; read-out: PIM2 LC3K (Ki). In kind it is biochemical.

Assay [3] deals with BaF3 PIM1 cells (Homo sapiens, UniProt P11309). Briefly: BaF3 PIM1 cell proliferation (Cell Titer Glo). The settings on record: incubated overnight; read-out: Prolif BaF3_PIM1 (IC50). Format: cell-based. (In general: ATP-based viability assays read luminescence as a measure of living cells.)
The target of assay [4] is T3, PIM1 (Homo sapiens, UniProt P11309).
T3 construct: made in house
As to the kind of experiment: Pim-1 kinase enzymatic assay (Caliper LC3000, FAM-Pimtide substrate). Conditions: 20 pM PIM1, 10 μM ATP, 90 minutes; read-out: PIM1 LC3K (Ki). Format: biochemical.

The target of assay [5] is BaF3 PIM2 cells (Homo sapiens, UniProt Q9P1W9). As to the kind of experiment: BaF3 PIM2 cell proliferation (Cell Titer Glo). In kind it is cell-based. The settings on record: incubated overnight; read-out: Prolif BaF3_PIM2 (IC50). In a few lines: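 BaF3 cells stably transfected with PIM2 were cultured in RPMI with 10% FBS, 2 mM L-Glutamine and 250 μg/mL G418, then plated at 5 k/well in 45 μL/well of a 384-well plate. Test compound was added at 5 μL/well, cells incubated overnight, and viability measured by luminescence after 30 minutes with Cell Titer Glo (50 μL/well).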

Assay [6] concerns MM1.S cells. As to the kind of experiment: MM1.S cell proliferation, 72 hours (Cell Titer Glo). Conditions: Homo sapiens, 72 hours, read-out: Prolif MM1S ATP (EC50). In kind it is cell-based. In a few lines:
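BaF3 parental cells (2 k/well, with 2 ng/mL mIL-3) were treated overnight, and MM1.S cells (10 k/well) were treated for 72 h at 37 °C. Viability was read by CellTiter-Glo luminescence. IC50/EC50 values were calculated from the luminescence data.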

This is an account of results in US8435976B2, “4-substituted pyridin-3-yl-carboxamide compounds and methods of use” (F. Hoffmann-La Roche, priority 2009, dated 2013).

BaF3 PIM1 cells, sequence (P11309 whole entry, change not shown): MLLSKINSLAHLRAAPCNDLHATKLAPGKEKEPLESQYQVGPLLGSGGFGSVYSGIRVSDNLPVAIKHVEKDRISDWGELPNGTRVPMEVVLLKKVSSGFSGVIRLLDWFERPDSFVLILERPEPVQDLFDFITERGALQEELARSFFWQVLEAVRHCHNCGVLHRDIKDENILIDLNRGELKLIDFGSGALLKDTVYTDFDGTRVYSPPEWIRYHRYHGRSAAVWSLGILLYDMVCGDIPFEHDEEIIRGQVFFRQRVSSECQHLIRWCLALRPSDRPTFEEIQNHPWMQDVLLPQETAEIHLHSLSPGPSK
T3 sequence (P11309 whole entry): as the sequence (P11309 whole entry, change not shown) above
BaF3 PIM2 cells, sequence (Q9P1W9 whole entry, change not shown): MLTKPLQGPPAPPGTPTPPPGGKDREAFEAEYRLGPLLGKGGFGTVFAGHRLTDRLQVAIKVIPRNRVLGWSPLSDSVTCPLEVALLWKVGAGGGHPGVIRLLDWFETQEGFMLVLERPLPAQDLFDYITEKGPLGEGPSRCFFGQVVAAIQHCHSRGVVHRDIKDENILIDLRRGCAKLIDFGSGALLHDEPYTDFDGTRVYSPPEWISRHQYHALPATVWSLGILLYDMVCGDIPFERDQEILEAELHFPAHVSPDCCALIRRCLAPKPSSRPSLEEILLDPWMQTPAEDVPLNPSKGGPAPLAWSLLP
T2 sequence (Q9P1W9 whole entry): as the sequence (Q9P1W9 whole entry, change not shown) above

For the compound `NC(=O)c1cccc(-c2nc(C(=O)Nc3cnccc3N3CCC[C@H](N)C3)c(N)s2)c1` [Example 22, (S)-5-amino-N-(4-(3-aminopiperidin-1-yl)pyridin-3-yl)-2-(3-carbamoylphenyl)thiazole-4-carboxamide], the figures for the Ki in assay [1], in assay [2] and in assay [4] were 0.052 nM, 0.495 nM and 0.054 nM, respectively. Besides, the GI50 in assay [3] is 520 nM; in assay [5] it was above 20000 nM. Moreover, the EC50 in assay [6] amounted to 4700 nM.
Turning to `CC(C)Oc1ccc(F)c(-c2nc(C(=O)Nc3cnccc3N3CCC[C@H](N)C3)c(N)s2)c1F` [Example 29, (S)-5-amino-N-(4-(3-aminopiperidin-1-yl)pyridin-3-yl)-2-(3-isopropyloxy-2,6-difluorophenyl)thiazole-4-carboxamide], the values for the inhibition constant (Ki) in assay [1], in assay [2] and in assay [4] were 0.07 nM, 0.565 nM and 0.058 nM, respectively. Moreover, the GI50 in assay [3] amounted to 48.9 nM; in assay [5], 4300 nM. Moreover, the EC50 in assay [6] was 1600 nM.
Turning to `CCNC(=O)Nc1ccc(-c2nc(C(=O)Nc3cnccc3N3CCC[C@H](N)C3)c(N)s2)cc1` [Example 32, (S)-5-amino-N-(4-(3-aminopiperidin-1-yl)pyridin-3-yl)-2-(4-(3-ethylureido)phenyl)thiazole-4-carboxamide], the values for the inhibition constant Ki in assay [1], in assay [2] and in assay [4] were 0.022 nM, 0.127 nM and 0.054 nM, respectively. Also, the GI50 was 1700 nM in assay [3] and above 20000 nM in assay [5]. Moreover, in assay [6], the EC50 turned out to be 650 nM.
In the case of `Nc1sc(-c2cc(Cl)ccc2F)nc1C(=O)Nc1cnccc1N1CCC[C@H](N)C1` [Example 23, (S)-5-amino-N-(4-(3-aminopiperidin-1-yl)pyridin-3-yl)-2-(5-chloro-2-fluorophenyl)thiazole-4-carboxamide], the inhibition constant Ki stood at 0.031 nM in assay [1], 0.153 nM in assay [2] and 0.034 nM in assay [4]. Besides, the figures for the GI50 in assay [3] and in assay [5] were 2500 nM and 1800 nM, respectively. Besides, the concentration for a half-maximal effect (EC50) in assay [6] came to 137 nM.
With `Nc1sc(-c2cn[nH]c2)nc1C(=O)Nc1cnccc1N1CCC[C@H](N)C1` [Example 56, (S)-5-amino-N-(4-(3-aminopiperidin-1-yl)pyridin-3-yl)-2-(1H-pyrazol-4-yl)thiazole-4-carboxamide], the Ki amounted to 0.08 nM in assay [1], 0.666 nM in assay [2] and 0.115 nM in assay [4]. In addition, the GI50 in assay [3] was 1500 nM; in assay [5] it was above 20000 nM. The EC50 in assay [6] is 953 nM.
For the compound `Nc1sc(-c2ccccc2OC(F)(F)F)nc1C(=O)Nc1cnccc1N1CCC[C@H](N)C1` [Example 15], the results for the Ki in assay [1], in assay [2] and in assay [4] were 1.89 nM, 16.4 nM and 1.93 nM, respectively. In addition, the GI50 in assay [3] came to 945 nM; in assay [5], 3300 nM. The EC50 in assay [6] was 4400 nM.
As for `Nc1sc(C2CCCC2)nc1C(=O)Nc1cnccc1N1CCC[C@H](N)C1` [Example 60, (S)-5-amino-N-(4-(3-aminopiperidin-1-yl)pyridin-3-yl)-2-cyclopentylthiazole-4-carboxamide], the Ki in assay [1] is 0.279 nM; in assay [2], 1.16 nM; in assay [4] it was 1.07 nM. Further, the GI50 is 465 nM in assay [3] and 17600 nM in assay [5]. Further, in assay [6], the EC50 was 1400 nM.
As to `Nc1sc(-c2ccccc2F)nc1C(=O)Nc1cnccc1N1CCC[C@H](N)C1` [Example 1, (S)-5-amino-N-(4-(3-aminopiperidin-1-yl)pyridin-3-yl)-2-(2-fluorophenyl)thiazole-4-carboxamide], the Ki in assay [1] amounted to 0.0156 nM; in assay [2] it was 0.0671 nM; in assay [4], 0.0224 nM. The results for the GI50 in assay [3] and in assay [5] were 33.2 nM and 1400 nM, respectively. In addition, the EC50 in assay [6] came out at 108 nM.
For `Nc1sc(-c2ccccc2Cl)nc1C(=O)Nc1cnccc1N1CCC[C@H](N)C1` [Example 2, (S)-5-amino-N-(4-(3-aminopiperidin-1-yl)pyridin-3-yl)-2-(2-chlorophenyl)thiazole-4-carboxamide], the Ki was determined as 0.0205 nM in assay [1], 0.126 nM in assay [2] and 0.0355 nM in assay [4]. Further, the GI50 was determined as 67.2 nM in assay [3] and 2000 nM in assay [5]. In assay [6], the EC50 worked out at 218 nM.
Consider `Nc1sc(-c2cc(Br)ccc2Cl)nc1C(=O)Nc1cnccc1N1CCC[C@H](N)C1` [Example 5, (S)-5-amino-N-(4-(3-aminopiperidin-1-yl)pyridin-3-yl)-2-(5-bromo-2-chlorophenyl)thiazole-4-carboxamide], for which the Ki turned out to be 0.05 nM in assay [1], 0.493 nM in assay [2] and 0.044 nM in assay [4]. The GI50 amounted to 300 nM in assay [3] and 2800 nM in assay [5]. Also, the concentration giving a half-maximal response (EC50) in assay [6] is 1500 nM.
`CCOc1ccc(F)c(-c2nc(C(=O)Nc3cnccc3N3CCC[C@H](N)C3)c(N)s2)c1F` [Example 26, (S)-5-amino-N-(4-(3-aminopiperidin-1-yl)pyridin-3-yl)-2-(3-ethoxy-2,6-difluorophenyl)thiazole-4-carboxamide]: the Ki was 0.022 nM in assay [1], 0.15 nM in assay [2] and 0.014 nM in assay [4]. Also, the GI50 in assay [3] was determined as 28.2 nM; in assay [5], 2400 nM. Besides, the EC50 in assay [6] is 148 nM.
As to `Cc1cccc(-c2nc(C(=O)Nc3cnccc3N3CCC[C@H](N)C3)c(N)s2)c1` [Example 31, (S)-5-amino-N-(4-(3-aminopiperidin-1-yl)pyridin-3-yl)-2-(3-tolylthiazole)-4-carboxamide], the figures for the Ki in assay [1], in assay [2] and in assay [4] were 0.023 nM, 0.339 nM and 0.0464 nM, respectively. Also, the GI50 is 66.5 nM in assay [3] and 2300 nM in assay [5]. Moreover, in assay [6], the EC50 was 1300 nM.
For `Nc1sc(-c2ccccn2)nc1C(=O)Nc1cnccc1N1CCC[C@H](N)C1` [Example 9, (S)-5-amino-N-(4-(3-aminopiperidin-1-yl)pyridin-3-yl)-2-(pyridin-2-yl)thiazole-4-carboxamide], the inhibition constant (Ki) in assay [1] is 0.014 nM; in assay [2], 0.16 nM; in assay [4], 0.084 nM. Moreover, the GI50 in assay [3] stood at 68.8 nM; in assay [5], 1900 nM. Moreover, in assay [6], the EC50 worked out at 89.7 nM.

As usually defined, the Ki is a measure of affinity in units of concentration, obtained from inhibition or displacement. What is called EC50 is the midpoint of the concentration-response curve.
